Assay results published in US9890400B2, “Method of production of 2,4-dihydroxybutyric acid” (ADISSEO FRANCE S.A.S., priority 2012, dated 2018).
Residue numbers refer to the chain shown, from its start.

Assays:
[1] = tested on: malic enzyme; conditions: Rognstad & Katz, 1979; cited from earlier work
[2] = biological target: T1, Metallosphaera sedula succinic semialdehyde reductase (Ms-SSR), wild type, SEQ ID No. 16 (Metallosphaera sedula, UniProt A4YGN0); test: Malate semialdehyde reductase activity; assay type: biochemical; conditions: NADH or NADPH, pH 7.5, 30° C., average of at least two independent experiments
T1 construct: full length 360 aa
T1 sequence (A4YGN0 1-360): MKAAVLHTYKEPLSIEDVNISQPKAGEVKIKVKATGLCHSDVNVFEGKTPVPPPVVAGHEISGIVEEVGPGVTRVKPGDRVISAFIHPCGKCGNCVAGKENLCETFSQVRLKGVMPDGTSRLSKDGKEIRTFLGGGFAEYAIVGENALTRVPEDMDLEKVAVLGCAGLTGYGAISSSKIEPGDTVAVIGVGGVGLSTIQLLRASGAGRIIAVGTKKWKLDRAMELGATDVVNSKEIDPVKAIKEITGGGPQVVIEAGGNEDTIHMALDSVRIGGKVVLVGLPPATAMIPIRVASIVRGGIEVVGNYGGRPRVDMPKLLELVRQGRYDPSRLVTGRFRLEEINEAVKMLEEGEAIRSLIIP
Procedure: To identify a suitable 2,4 DHB dehydrogenase, beta-hydroxyacid dehydrogenases from different biological sources were tested for their ability to reduce malate semialdehyde. […] The genes YPR1, 4hbdh, yqhD, and Ms-SSR were amplified using primers listed in Table 5 and cloned into vector pET28 (restriction enzymes see Table 5) yielding plasmids pET28-Sce-YPR1, pET28-Pgi-4-hbdh, pET28-Eco-yqhd and pET28-Mse-SSR, respectively. The proteins were expressed and purified as described in Example 1.
(§1) Test for Malate Semialdehyde Reductase Activity: (L)-Malate semialdehyde+NAD(P)H→(L)-2,4-dihydroxybutyric acid+NAD(P) Reaction scheme:
(§2) The assay mixture contained 200 mM Hepes (pH 7.5), 50 mM KCl, 5 mM MgCl2, 0.24 mM NADH or NADPH, and appropriate amounts of purified enzyme or cell extract. Reactions were started by adding 10 mM (L)-malate semialdehyde (malate semialdehyde was prepared freshly for each test, see Example 3). Enzymatic assays were carried out at 30° C. in 96-well flat bottomed microtiter plates in a final volume of 250 μL. The reactions were followed by the characteristic absorption of NAD(P)H at 340 nm (εNADPH=6.22 mM^−1 cm^−1) in a microplate reader (BioRad 680XR).

[3] = biological target: T2, Metallosphaera sedula succinic semialdehyde reductase (Ms-SSR) double mutant H39R N43H, SEQ ID No. 36 (Metallosphaera sedula, UniProt A4YGN0, H39R/N43H); test: Malate semialdehyde reductase activity; assay type: biochemical; conditions: NADH or NADPH, pH 7.5, 30° C., average of at least two independent experiments
T2 sequence (A4YGN0 1-360 H39R/N43H): T1 sequence (A4YGN0 1-360) with H39R, N43H
Procedure: as §1, §2
(§3) Site-directed mutagenesis was carried out using the oligonucleotide pairs listed in Table 6 and the pET28-Mse-SSR plasmid as the template. Point mutations to change the amino acid sequences were introduced by PCR (Phusion 1U, HF buffer 20% (v/v), dNTPs 2.5 mM, direct and reverse primers 1 μM each, template plasmid 200 ng, water). When possible, plasmids created by PCR contained new restriction sites (introduced using silent mutations) in addition to the functional mutation to facilitate identification of mutated clones. The PCR products were digested by DpnI at 37° C. for 2×2 h to remove template DNA, and transformed into NEB DH5-α competent E. coli cells (NEB). The mutated plasmids were identified by restriction site analysis and verified to carry the desired mutations by DNA sequencing.

[4] = biological target: T3, Metallosphaera sedula succinic semialdehyde reductase (Ms-SSR) mutant H39R, SEQ ID No. 32 (Metallosphaera sedula, UniProt A4YGN0, H39R); test: Malate semialdehyde reductase activity; assay type: biochemical; conditions: NADH or NADPH, pH 7.5, 30° C., average of at least two independent experiments
T3 sequence (A4YGN0 1-360 H39R): T1 sequence (A4YGN0 1-360) with H39R
Procedure: as §1, §2, §3

[5] = biological target: T4, Metallosphaera sedula succinic semialdehyde reductase (Ms-SSR) mutant N43H, SEQ ID No. 34 (Metallosphaera sedula, UniProt A4YGN0, N43H); test: Malate semialdehyde reductase activity; assay type: biochemical; conditions: NADH or NADPH, pH 7.5, 30° C., average of at least two independent experiments
T4 sequence (A4YGN0 1-360 N43H): T1 sequence (A4YGN0 1-360) with N43H
Procedure: as §1, §2, §3

Structure (SMILES)	inhibition of malic enzyme [1]	Maximum activity [2]	Maximum activity [3]	Maximum activity [4]	Maximum activity [5]
O=C(O)[C@@H](O)CCO [2,4-DHB, 2,4-dihydroxybutyric acid]	competitive inhibitor	–	–	–	–
O=CC[C@H](O)C(=O)O [malate semialdehyde, (L)-malate semialdehyde]	–	4.9 μmol/(min * mgprot)	4.7 μmol/(min * mgprot)	1.7 μmol/(min * mgprot)	4.3 μmol/(min * mgprot)
